In patent publication US20240270821A1, “GIP/GLP1/GCG TRI-RECEPTOR AGONISTS AND USES THEREOF” (priority 2023, published 2024):
Starred links: 1 amine or outer side, 2 acyl side, 3 side chain; linkers in the order of their positions; H or OH if unused. Non-standard residues stand in square brackets, D forms with d. Groups on a side chain read outwards from the residue. No end group written: not given here. *: point of attachment. C20 diacid = O=C(O)CCCCCCCCCCCCCCCCCCC(=O)*; C18 diacid = O=C(O)CCCCCCCCCCCCCCCCC(=O)*; γGlu = O=C(O)[C@H](CCC(=O)[*:2])N[*:1]; αMe4Pal = C[C@](N)(Cc1ccncc1)C(=O)O; 4Pal = N[C@@H](Cc1ccncc1)C(=O)O; αMeL = CC(C)C[C@](C)(N)C(=O)O; Orn = NCCC[C@H](N)C(=O)O; Dab = NCC[C@H](N)C(=O)O; Dap = NC[C@H](N)C(=O)O; AEEA = NCCOCCOCC(=O)O; Aib = CC(C)(N)C(=O)O

Assays:
Format in all cases: cell-based
hGIPR [1] = molecular target: T1, hGIPR (Homo sapiens, UniProt P48546); assay: Functional cAMP activation in the presence of 0.1% casein (no HSA); conditions: in the presence of 0.1% casein (no HSA); geometric mean; read-out: Relative cAMP EC50, hGIPR;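 also: intracellular cAMP rise after 30 min at 37 °C read by HTRF against a standard curve, scaled between buffer alone (0%) and top control ligand concentration (100%), four-parameter fit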
T1 sequence (P48546 22-466): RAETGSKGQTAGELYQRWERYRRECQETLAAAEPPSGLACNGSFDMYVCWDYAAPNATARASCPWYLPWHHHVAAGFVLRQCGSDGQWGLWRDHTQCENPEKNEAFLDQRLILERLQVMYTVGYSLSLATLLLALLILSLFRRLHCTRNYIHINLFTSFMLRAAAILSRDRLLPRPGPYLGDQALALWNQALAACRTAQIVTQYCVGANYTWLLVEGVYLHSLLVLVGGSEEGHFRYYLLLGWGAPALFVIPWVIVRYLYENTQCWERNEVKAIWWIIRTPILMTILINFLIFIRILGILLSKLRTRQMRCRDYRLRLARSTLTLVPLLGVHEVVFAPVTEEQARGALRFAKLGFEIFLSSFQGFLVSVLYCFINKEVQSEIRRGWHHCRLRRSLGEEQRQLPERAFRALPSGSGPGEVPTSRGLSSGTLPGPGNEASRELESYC

human GcgR = human GcgR (Homo sapiens, UniProt P47871); assay: Functional cAMP activity in the presence of 1% HSA; conditions: read-out: cAMP Rel EC50, hGcgR
hGcgR = hGcgR (Homo sapiens, UniProt P47871); assay: Functional cAMP activation in the presence of 0.1% casein (no HSA); conditions: in the presence of 0.1% casein (no HSA); geometric mean; read-out: Relative cAMP EC50, hGcgR;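 also: intracellular cAMP rise after 30 min at 37 °C, read by HTRF against a cAMP standard curve, scaled from buffer only (0%) to maximal control ligand response (100%)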
human GLP1-R = human GLP1-R (Homo sapiens, UniProt P43220); assay: GLP1-R internalization assay in HEK293 cells; conditions: for EC50: HEK293 cells expressing SNAP-GLP-1R, read-out: GLP1R Internalization EC50; for Internalization % TOP: normalized to maximum concentration of GLP-1 (100%)
hGLP-1R [2] = molecular target: T2, hGLP-1R (Homo sapiens, UniProt P43220); assay: Functional cAMP activation in the presence of 0.1% casein (no HSA); conditions: in the presence of 0.1% casein (no HSA); geometric mean; read-out: Relative cAMP EC50, hGLP-1R;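 also: intracellular cAMP rise after 30 min at 37 °C read by HTRF, normalized between buffer only (0%) and maximal control ligand (100%), four-parameter variable-slope fit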
hGIPR [3] = molecular target: T1, hGIPR; assay: Functional cAMP activity in the presence of 1% HSA; conditions: read-out: cAMP Rel EC50, hGIPR
hGLP-1R [4] = molecular target: T2, hGLP-1R; assay: Functional cAMP activity in the presence of 1% HSA; conditions: read-out: cAMP Rel EC50, hGLP-1R

human GLP1-R, sequence (P43220 24-463): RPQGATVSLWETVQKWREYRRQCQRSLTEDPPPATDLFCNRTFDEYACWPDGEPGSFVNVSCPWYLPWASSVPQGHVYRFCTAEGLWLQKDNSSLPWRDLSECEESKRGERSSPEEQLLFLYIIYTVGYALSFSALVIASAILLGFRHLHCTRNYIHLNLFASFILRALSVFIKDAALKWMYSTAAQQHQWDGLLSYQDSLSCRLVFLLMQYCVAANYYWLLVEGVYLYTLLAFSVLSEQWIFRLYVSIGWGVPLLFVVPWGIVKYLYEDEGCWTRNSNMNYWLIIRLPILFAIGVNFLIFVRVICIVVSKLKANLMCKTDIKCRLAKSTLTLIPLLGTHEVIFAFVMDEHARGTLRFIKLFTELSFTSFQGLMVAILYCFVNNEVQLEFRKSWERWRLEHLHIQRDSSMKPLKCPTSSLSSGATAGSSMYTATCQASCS
T2 sequence (P43220 24-463): as above
hGcgR, sequence (P47871 26-477): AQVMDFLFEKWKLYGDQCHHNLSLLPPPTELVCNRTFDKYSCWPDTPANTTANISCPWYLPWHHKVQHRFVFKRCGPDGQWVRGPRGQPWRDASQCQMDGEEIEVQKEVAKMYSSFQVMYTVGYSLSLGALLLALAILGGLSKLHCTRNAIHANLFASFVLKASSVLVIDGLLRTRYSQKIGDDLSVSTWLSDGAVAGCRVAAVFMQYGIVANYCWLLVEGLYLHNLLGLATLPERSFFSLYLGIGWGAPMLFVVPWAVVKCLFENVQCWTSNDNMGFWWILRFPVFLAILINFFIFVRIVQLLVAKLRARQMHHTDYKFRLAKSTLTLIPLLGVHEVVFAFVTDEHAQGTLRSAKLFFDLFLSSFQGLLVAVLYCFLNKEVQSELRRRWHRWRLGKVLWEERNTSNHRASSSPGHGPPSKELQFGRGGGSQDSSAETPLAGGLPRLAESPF
human GcgR, sequence (P47871 26-477): as above

Substance	EC50 (hGIPR [1]) [nM]	EC50 (human GcgR) [nM]	EC50 (hGcgR) [nM]	EC50 (human GLP1-R) [nM]	Internalization % TOP (human GLP1-R) [%]	EC50 (hGLP-1R [2]) [nM]	EC50 (hGIPR [3]) [nM]	EC50 (hGLP-1R [4]) [nM]
H-Y[Aib]QGTFTSDFS[Orn][αMeL]LDKK([AEEA-γGlu-C18 diacid])AQ[αMe4Pal]AFIEYLIE[Aib]GESSGAPPPSGS-NH2 [Example 229]	0.179	332	2.3	42.4	31.4	1.58	27.8	249
H-Y[Aib]QGTFTSDFS[Orn][αMeL]LDKK([AEEA-γGlu-C20 diacid])AQ[Aib]AFIEWLLEGGPSSGAPPPSGS-NH2 [Example 78]	0.228	2640	7.06	78.2	55	1.93	78.4	560
H-Y[Aib]QGTFTSDFS[Orn][αMeL]LDKK([AEEA-γGlu-γGlu-C18 diacid])AQ[Aib]AFIEYLLE[Aib]GPSSGAPPPSGS-NH2 [Example 192]	0.142	560	4.18	115	48.7	9.77	9.86	719
H-Y[Aib]QGTFTSDFS[Orn][αMeL]LDKK([AEEA-γGlu-γGlu-C18 diacid])AQ[Aib]AFIEYLLE[Aib]GPSSGAPPPSGT-NH2 [Example 278]	0.0963	274	4.45	251	68.6	4.11	7.69	241
H-Y[Aib]QGTFTSDFS[Orn][αMeL]LDKK([AEEA-γGlu-γGlu-C18 diacid])AQ[Aib]AFIEYLLE[Aib]GPSSGAPPPSG[4Pal]-NH2 [Example 279]	0.105	427	5.06	115	37.5	5.77	11.6	367
H-Y[Aib]QGTFTSDFS[Orn][αMeL]LDKK([γGlu-AEEA-γGlu-C18 diacid])AQ[Aib]AFIEYLLE[Aib]GPSSGAPPPSGT-NH2 [Example 276]	0.0708	113	2.82	237	68.4	2.61	6.28	103
H-Y[Aib]QGTFTSDYSK[αMeL]LDKK([AEEA-γGlu-C18 diacid])AQ[Aib]AFIEYLLEGGESSGAPPPSGS-NH2 [Example 358]	0.182	876	2.78	21.5	83.1	2.31	38.8	492
H-Y[Aib]QGTFTSDYSQ[αMeL]LDKK([AEEA-γGlu-C18 diacid])AQ[Aib]AFIEYLLEGGESSGAPPPSGS-NH2 [Example 362]	0.262	1450	6.04	22.8	77.5	1.77	38.7	450
H-Y[Aib]QGTFTSDYS[Dap][αMeL]LDKK([AEEA-γGlu-C18 diacid])AQ[Aib]AFIEYLLEGGESSGAPPPSGS-NH2 [Example 360]	0.45	1470	5.28	214	66.1	5.86	78.3	989
H-Y[Aib]QGTFTSDYS[Orn][αMeL]LDKK([AEEA-γGlu-C18 diacid])AQ[Aib]AFIEYLLEGGESSGAPPPSGS-NH2 [Example 359]	0.281	957	2.1	49.6	74.4	4.61	103	826
H-Y[Aib]QGTFTSD[4Pal]SK[αMeL]LDKK([AEEA-γGlu-C18 diacid])AQ[Aib]AFIEYLIA[Aib]GESSGAPPPSGS-NH2 [Example 285]	0.0652	409	2.32	59.9	73.6	2.87	8.22	365
H-Y[Aib]QGTFTSD[4Pal]SK[αMeL]LDKK([AEEA-γGlu-C18 diacid])AQ[Aib]AFIEYLIE[Aib]GESSGAPPPSGS-NH2 [Example 280]	0.105	1600	8.63	39.4	74.9	0.95	15.6	171
H-Y[Aib]QGTFTSD[4Pal]SK[αMeL]LDKK([AEEA-γGlu-C18 diacid])AQ[Aib]AFIEYLIE[Aib]GESSGEPPPSGS-NH2 [Example 282]	0.163	1830	6.98	28.7	71.9	1.09	22.1	217
H-Y[Aib]QGTFTSD[4Pal]SR[αMeL]LDKK([AEEA-γGlu-C18 diacid])AQ[Aib]AFIEYLLAGGPSSGAPPPSGE-NH2 [Example 113]	0.24	2090	12	39.5	64.6	3.93	32.3	467
H-Y[Aib]QGTFTSD[4Pal]SR[αMeL]LDKK([AEEA-γGlu-C18 diacid])AQ[Aib]AFIEYLLE[Aib]GPSSGAPPPSGE-NH2 [Example 114]	0.14	1120	5.63	47.2	62.9	6.38	19.6	1370
H-Y[Aib]QGTFTSD[4Pal]S[Orn][αMeL]LDKK([AEEA-γGlu-C18 diacid])AQ[Aib]AFIEWLLEGGPSSGEPPPSGE-NH2 [Example 115]	0.457	2210	10.6	255	56.5	7.6	73.9	1460
H-Y[Aib]QGTFTSD[4Pal]S[Orn][αMeL]LDKK([AEEA-γGlu-C18 diacid])AQ[αMe4Pal]AFIEYLIE[Aib]GESSGAPPPSGE-NH2 [Example 222]	0.228	440	2.33	34.6	52.4	3.64	52.5	753
Y[Aib]QGTFTSDFSK[αMeL]LDKK([AEEA-γGlu-C18 diacid])AQ[Aib]AFIEYLLEGGPSSGAPPPSEG-NH2 [Example 48]	0.27	728	3.8	44	55.2	2.99	46.9	570
Y[Aib]QGTFTSDFSK[αMeL]LDKK([AEEA-γGlu-C18 diacid])AQ[Aib]QFIEYLLAGGPSSGEPPPSEG-NH2 [Example 26]	0.2	980	4.82	96.1	75.6	3.44	35.4	623
Y[Aib]QGTFTSDFS[Dab][αMeL]LDKK([AEEA-γGlu-C18 diacid])AQ[Aib]AFIEYLLEGGPSSGAPPPGGS-NH2 [Example 67]	0.34	781	3.7	50.9	31.1	4.07	73.3	683
Y[Aib]QGTFTSDFS[Orn][αMeL]LDKK([AEEA-AEEA-γGlu-C18 diacid])AQ[Aib]AFIEYLLE[dA]GPSSGEPPPSEG-NH2 [Example 116]	0.382	882	3.96	80.7	46.2	7.83	40.4	401
Y[Aib]QGTFTSDFS[Orn][αMeL]LDKK([AEEA-AEEA-γGlu-C18 diacid])AQ[Aib]AFIEYLLE[dA]GPSSG[4Pal]PPPSGS-NH2 [Example 254]	0.121	767	4.9	31.9	47.8	3.08	21.4	265
Y[Aib]QGTFTSDFS[Orn][αMeL]LDKK([AEEA-γGlu-C18 diacid])AQ[Aib]AFIEYLLEGGPSSGAPPPSEG-NH2 [Example 50]	0.29	1040	4.25	30.1	31.1	4.65	69.6	1110
